Test results from PubChem BioAssay (NCI).
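Method: 48-hour compound exposure of cells in 96-well plates, five concentrations, linear interpolation of endpoints. Abbreviation: GI50, concentration required for 50% inhibition of growth. Definition used: TGI = concentration required for complete inhibition of growth.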

How the values were obtained:
Test in all cases: DTP human tumour cell line panel, 48 h
NCI-H226 lung = test system: NCI-H226 lung
NCI-H23 lung = test system: NCI-H23 lung
NCI-H460 lung = test system: NCI-H460 lung
NCI-H522 lung = test system: NCI-H522 lung
NCI/ADR-RES ovarian = test system: NCI/ADR-RES ovarian
OVCAR-3 ovarian = test system: OVCAR-3 ovarian
OVCAR-4 ovarian = test system: OVCAR-4 ovarian
OVCAR-5 ovarian = test system: OVCAR-5 ovarian
OVCAR-8 ovarian = test system: OVCAR-8 ovarian
PC-3 prostate = test system: PC-3 prostate
RPMI-8226 leukemia = test system: RPMI-8226 leukemia
RXF 393 renal = test system: RXF 393 renal
SF-268 CNS = test system: SF-268 CNS
SF-295 CNS = test system: SF-295 CNS
SF-539 CNS = test system: SF-539 CNS
SK-MEL-2 melanoma = test system: SK-MEL-2 melanoma
SK-MEL-28 melanoma = test system: SK-MEL-28 melanoma
SK-MEL-5 melanoma = test system: SK-MEL-5 melanoma
SK-OV-3 ovarian = test system: SK-OV-3 ovarian
SN12C renal = test system: SN12C renal
SNB-19 CNS = test system: SNB-19 CNS
SNB-75 CNS = test system: SNB-75 CNS
SW-620 colon = test system: SW-620 colon
T-47D breast = test system: T-47D breast
TK-10 renal = test system: TK-10 renal
U251 CNS = test system: U251 CNS
UACC-257 melanoma = test system: UACC-257 melanoma
UACC-62 melanoma = test system: UACC-62 melanoma
UO-31 renal = test system: UO-31 renal

O=C(c1ccc(OCCN2CCOCC2)cc1)C1[C@H](c2ccc(Cl)cc2)[C@@H](c2ccccc2)NC12C(=O)Nc1ccc(Cl)cc12 (stereo partly drawn)
GI50 (NCI-H226 lung): 8.06 µM
TGI (NCI-H226 lung): 19.5 µM
GI50 (NCI-H23 lung): 8.72 µM
TGI (NCI-H23 lung): 18.2 µM
GI50 (NCI-H460 lung): 8.9 µM
TGI (NCI-H460 lung): 19.1 µM
GI50 (NCI-H522 lung): 9.75 µM
TGI (NCI-H522 lung): 21.3 µM
GI50 (NCI/ADR-RES ovarian): 11.1 µM
TGI (NCI/ADR-RES ovarian): 31.2 µM
GI50 (OVCAR-3 ovarian): 8.24 µM
TGI (OVCAR-3 ovarian): 20.1 µM
GI50 (OVCAR-4 ovarian): 11 µM
TGI (OVCAR-4 ovarian): 39.2 µM
GI50 (OVCAR-5 ovarian): 8.98 µM
TGI (OVCAR-5 ovarian): 25.4 µM
GI50 (OVCAR-8 ovarian): 13.6 µM
TGI (OVCAR-8 ovarian): > 47.3 µM
GI50 (PC-3 prostate): 7.93 µM
TGI (PC-3 prostate): 20.3 µM
GI50 (RPMI-8226 leukemia): 10.3 µM
TGI (RPMI-8226 leukemia): 29.9 µM
GI50 (RXF 393 renal): 6.14 µM
TGI (RXF 393 renal): 13.6 µM
GI50 (SF-268 CNS): 10.6 µM
TGI (SF-268 CNS): > 47.3 µM
GI50 (SF-295 CNS): 7.41 µM
TGI (SF-295 CNS): 14.4 µM
GI50 (SF-539 CNS): 8 µM
TGI (SF-539 CNS): 15 µM
GI50 (SK-MEL-2 melanoma): 7.85 µM
TGI (SK-MEL-2 melanoma): 15.7 µM
GI50 (SK-MEL-28 melanoma): 7.8 µM
TGI (SK-MEL-28 melanoma): 14.6 µM
GI50 (SK-MEL-5 melanoma): 5.4 µM
TGI (SK-MEL-5 melanoma): 11.8 µM
GI50 (SK-OV-3 ovarian): 15.4 µM
TGI (SK-OV-3 ovarian): > 47.3 µM
GI50 (SN12C renal): 6.75 µM
TGI (SN12C renal): 13 µM
GI50 (SNB-19 CNS): 10.6 µM
TGI (SNB-19 CNS): 34.9 µM
GI50 (SNB-75 CNS): 4.11 µM
TGI (SNB-75 CNS): > 47.3 µM
GI50 (SW-620 colon): 8.77 µM
TGI (SW-620 colon): 18.9 µM
GI50 (T-47D breast): 13.5 µM
TGI (T-47D breast): > 47.3 µM
GI50 (TK-10 renal): 9.96 µM
TGI (TK-10 renal): 33.7 µM
GI50 (U251 CNS): 7.15 µM
TGI (U251 CNS): 14.6 µM
GI50 (UACC-257 melanoma): 9.69 µM
TGI (UACC-257 melanoma): 34.2 µM
GI50 (UACC-62 melanoma): 6.42 µM
TGI (UACC-62 melanoma): 12.8 µM
GI50 (UO-31 renal): 7.25 µM
TGI (UO-31 renal): 23.7 µM
